Test results reported in patent publication US6416998B1, “Plasmid encoding a modified steroid hormone” (Baylor College of Medicine, priority 1992, dated 2002).

Key:
[1] = target: T1, UP-1 mutant receptor (hPR) (Homo sapiens, UniProt P06401); assay: Yeast transcription assay (β-galactosidase activity); assay type: cell-based; conditions: for transcriptional activity (in words): 1 μM, 4 hours; for activation of mutant receptor: different concentrations (FIG. 5A)
T1 construct: the wild type receptor is truncated by 54 authentic amino acids and 12 novel amino acids are added at the C-terminus; expressed in transfected cells; host or cells: Saccharomyces cerevisiae BJ3505 transformed with the UP-1 plasmid
T1 sequence (P06401 with tags, fused parts or gaps): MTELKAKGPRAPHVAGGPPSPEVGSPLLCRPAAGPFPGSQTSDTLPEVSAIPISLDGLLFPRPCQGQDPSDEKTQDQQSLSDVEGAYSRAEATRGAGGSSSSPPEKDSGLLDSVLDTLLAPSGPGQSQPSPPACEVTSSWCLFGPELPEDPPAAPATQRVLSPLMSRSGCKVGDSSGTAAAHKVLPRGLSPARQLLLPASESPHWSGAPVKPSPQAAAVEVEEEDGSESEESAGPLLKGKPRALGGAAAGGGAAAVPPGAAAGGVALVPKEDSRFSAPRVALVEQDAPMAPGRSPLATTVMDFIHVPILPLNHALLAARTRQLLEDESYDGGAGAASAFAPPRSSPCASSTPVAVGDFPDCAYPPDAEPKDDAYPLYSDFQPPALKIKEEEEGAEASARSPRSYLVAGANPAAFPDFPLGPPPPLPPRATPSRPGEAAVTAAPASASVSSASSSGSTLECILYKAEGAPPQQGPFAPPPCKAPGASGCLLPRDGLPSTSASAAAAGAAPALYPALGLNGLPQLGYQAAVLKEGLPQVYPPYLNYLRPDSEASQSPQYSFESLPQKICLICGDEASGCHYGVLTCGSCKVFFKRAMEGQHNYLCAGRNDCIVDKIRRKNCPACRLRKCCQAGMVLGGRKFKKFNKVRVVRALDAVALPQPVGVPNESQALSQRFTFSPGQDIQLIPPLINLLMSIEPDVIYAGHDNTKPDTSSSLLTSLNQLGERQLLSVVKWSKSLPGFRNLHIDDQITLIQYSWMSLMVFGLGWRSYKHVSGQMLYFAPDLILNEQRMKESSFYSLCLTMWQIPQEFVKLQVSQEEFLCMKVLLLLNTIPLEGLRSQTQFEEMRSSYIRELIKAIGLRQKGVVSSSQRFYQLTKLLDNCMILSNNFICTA
Experimental: (§1) Saccharomyces cerevisiae cells containing YEphPRB and the reporter plasmid were grown overnight at 30° C. in minimal media containing 2% glucose. The cells were subcultured in fresh medium and allowed to grow until early mid-log phase (O.D.600nm=1.0). Induction of receptor was initiated by the addition of 100 μM copper sulfate to the culture. Cells were harvested by centrifugation at 1,500 ×g for 10 minutes and resuspended in the appropriate buffer. This and all subsequent steps of analysis of the yeast extracts were done at 4° C.
(§2) When the cell density reached O.D.600nm=1.0, hormones were added to the cultures.
(§3) The plate assays used to identify the receptor mutants are qualitative in nature. To further characterize the properties of UP-1, the activity of the receptor mutants was compared with that of the wild type receptor in a transcription assay. […] The β-galactosidase activity in the cell cytosol was then measured.

[2] = target: T2, wild type receptor (hPR-B) (Homo sapiens, UniProt P06401); assay: as above; assay type: cell-based, yeast (Saccharomyces cerevisiae); conditions: 1 μM; for transcriptional activity (in words): 4 hours
T2 construct: expressed in transfected cells; host or cells: Saccharomyces cerevisiae BJ3505 transformed with YEphPR-B
T2 sequence (P06401 1-933): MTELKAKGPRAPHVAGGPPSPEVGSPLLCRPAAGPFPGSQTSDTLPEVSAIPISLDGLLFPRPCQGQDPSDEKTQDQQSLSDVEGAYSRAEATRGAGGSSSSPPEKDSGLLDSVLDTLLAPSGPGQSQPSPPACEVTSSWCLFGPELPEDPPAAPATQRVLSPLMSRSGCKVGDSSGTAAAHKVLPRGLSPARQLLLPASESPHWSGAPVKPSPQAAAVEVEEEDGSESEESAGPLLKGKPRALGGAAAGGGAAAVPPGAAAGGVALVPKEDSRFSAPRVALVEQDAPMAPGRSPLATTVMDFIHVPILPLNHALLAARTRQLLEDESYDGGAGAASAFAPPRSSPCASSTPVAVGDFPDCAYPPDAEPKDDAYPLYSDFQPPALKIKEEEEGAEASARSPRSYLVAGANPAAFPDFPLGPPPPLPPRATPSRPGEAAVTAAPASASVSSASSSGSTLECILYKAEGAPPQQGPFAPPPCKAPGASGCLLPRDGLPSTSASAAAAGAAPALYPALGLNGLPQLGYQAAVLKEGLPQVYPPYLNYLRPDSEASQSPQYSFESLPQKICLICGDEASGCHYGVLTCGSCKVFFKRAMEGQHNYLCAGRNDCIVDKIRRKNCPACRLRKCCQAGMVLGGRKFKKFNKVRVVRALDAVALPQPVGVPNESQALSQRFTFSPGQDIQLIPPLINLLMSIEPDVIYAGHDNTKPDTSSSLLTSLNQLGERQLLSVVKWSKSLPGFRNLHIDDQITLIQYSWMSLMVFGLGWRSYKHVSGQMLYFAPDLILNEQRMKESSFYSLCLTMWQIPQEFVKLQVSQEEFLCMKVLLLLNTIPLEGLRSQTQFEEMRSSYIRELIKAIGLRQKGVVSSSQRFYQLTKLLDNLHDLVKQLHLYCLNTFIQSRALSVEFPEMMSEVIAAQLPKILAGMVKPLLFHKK
Experimental: as §1, §2, §3

[3] = target: T3, YEphPRB891 truncated receptor (Homo sapiens, UniProt P06401); assay: Yeast transcription assay; assay type: cell-based
T3 construct: YEphPRB891, containing a stop codon at amino acid 892; expressed in transfected cells; host or cells: Saccharomyces cerevisiae (yeast)
T3 sequence (P06401 1-891): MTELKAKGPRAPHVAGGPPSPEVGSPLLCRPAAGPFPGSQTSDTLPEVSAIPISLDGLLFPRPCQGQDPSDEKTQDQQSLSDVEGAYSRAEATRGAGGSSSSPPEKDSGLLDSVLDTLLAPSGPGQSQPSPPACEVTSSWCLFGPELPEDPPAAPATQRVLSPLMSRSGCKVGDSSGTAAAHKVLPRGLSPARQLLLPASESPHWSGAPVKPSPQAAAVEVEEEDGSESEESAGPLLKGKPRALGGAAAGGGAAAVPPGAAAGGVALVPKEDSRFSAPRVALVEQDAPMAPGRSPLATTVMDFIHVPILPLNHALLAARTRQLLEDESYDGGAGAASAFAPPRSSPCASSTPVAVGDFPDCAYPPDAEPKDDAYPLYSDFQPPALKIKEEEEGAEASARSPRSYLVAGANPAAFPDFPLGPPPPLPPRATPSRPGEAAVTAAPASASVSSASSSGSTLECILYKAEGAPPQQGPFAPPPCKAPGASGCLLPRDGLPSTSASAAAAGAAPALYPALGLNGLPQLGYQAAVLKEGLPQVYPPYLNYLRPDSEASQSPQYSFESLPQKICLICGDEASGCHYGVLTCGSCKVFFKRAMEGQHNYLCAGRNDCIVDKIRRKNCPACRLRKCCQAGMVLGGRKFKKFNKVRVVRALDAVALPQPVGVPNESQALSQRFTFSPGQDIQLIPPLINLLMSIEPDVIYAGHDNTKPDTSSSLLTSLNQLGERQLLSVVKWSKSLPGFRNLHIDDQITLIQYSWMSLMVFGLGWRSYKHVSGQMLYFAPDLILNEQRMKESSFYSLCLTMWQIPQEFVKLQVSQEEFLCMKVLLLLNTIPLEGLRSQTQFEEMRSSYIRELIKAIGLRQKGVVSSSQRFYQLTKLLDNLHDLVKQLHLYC
Experimental: as §2
(§4) CJ236 cells were infected with mpPR90 (an M13 plasmid containing hPR cDNA).
(§5) Yeast cells were grown in the presence of 100 μM CuSO4. Transcriptional analysis was done as described above. Experiments were done in triplicate and transcriptional activities were normalized with respect to protein.

[4] = target: T4, YEphPR-B879 truncated receptor (Homo sapiens, UniProt P06401); assay: Yeast transcription assay; assay type: cell-based
T4 construct: YEphPR-B879, containing a stop codon corresponding to amino acid 880; expressed in transfected cells; host or cells: Saccharomyces cerevisiae (yeast)
T4 sequence (P06401 1-879): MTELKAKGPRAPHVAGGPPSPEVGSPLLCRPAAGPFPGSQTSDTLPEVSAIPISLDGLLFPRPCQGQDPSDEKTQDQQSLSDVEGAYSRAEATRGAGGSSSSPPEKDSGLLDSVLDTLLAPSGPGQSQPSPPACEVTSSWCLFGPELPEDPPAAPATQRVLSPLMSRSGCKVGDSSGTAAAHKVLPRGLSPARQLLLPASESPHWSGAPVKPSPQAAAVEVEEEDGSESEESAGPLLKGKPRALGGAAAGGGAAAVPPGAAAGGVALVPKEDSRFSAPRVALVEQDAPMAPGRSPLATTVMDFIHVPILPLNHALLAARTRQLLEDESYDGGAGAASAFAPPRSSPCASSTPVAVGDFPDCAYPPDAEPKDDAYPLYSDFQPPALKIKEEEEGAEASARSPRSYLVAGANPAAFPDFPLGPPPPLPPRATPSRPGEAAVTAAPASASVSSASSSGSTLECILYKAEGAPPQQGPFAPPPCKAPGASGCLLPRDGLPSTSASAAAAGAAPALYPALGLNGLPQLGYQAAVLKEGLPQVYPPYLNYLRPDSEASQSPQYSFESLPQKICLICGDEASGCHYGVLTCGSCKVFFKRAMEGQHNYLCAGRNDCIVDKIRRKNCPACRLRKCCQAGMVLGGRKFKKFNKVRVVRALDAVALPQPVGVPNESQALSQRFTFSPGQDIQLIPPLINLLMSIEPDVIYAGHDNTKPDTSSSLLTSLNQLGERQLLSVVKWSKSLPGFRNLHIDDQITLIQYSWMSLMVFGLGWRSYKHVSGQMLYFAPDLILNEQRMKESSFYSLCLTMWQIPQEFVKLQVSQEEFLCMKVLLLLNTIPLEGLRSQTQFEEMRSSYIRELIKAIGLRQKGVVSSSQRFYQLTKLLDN
Experimental: as §2, §4, §5

891 mutant (phPR-B891) = target: T5, 891 mutant (phPR-B891) (Homo sapiens, UniProt P06401); assay: Transient transfection CAT assay ([…]) in HeLa cells; assay type: cell-based; conditions: 10^−7M
T5 construct: YEphPRB891, containing a stop codon at amino acid 892; expressed in transfected cells; host or cells: HeLa cells (A16)
T5 sequence (P06401 1-891): T3 sequence (P06401 1-891)
Experimental: (§6) Five μg of chloramphenicol acetyltransferase (CAT) reporter plasmid, containing two copies of a PRE/GRE from the tyrosine amino transferase gene linked to the thymidine kinase promoter ([…]), were used in transient cotransfection experiments together with 5 μg of wild type or mutant receptor DNAs.
(§7) CAT assays were performed as described above. In panel (B), CV-1 cells were transiently transfected as in (A).

wild type PR (phPR-B) = target: T6, wild type PR (phPR-B) (Homo sapiens, UniProt P06401); assay: as above; assay type: cell-based; conditions: 10^−7M, 48 hours
T6 sequence (P06401 1-933): T2 sequence (P06401 1-933)
Experimental: as §6, §7

[5] = target: T7, wild type receptor (phPR-B) (Homo sapiens, UniProt P06401); assay: Transient transfection CAT assay in CV-1 cells; assay type: cell-based, monkey
T7 sequence (P06401 1-933): T2 sequence (P06401 1-933)
Experimental: as §6, §7
Cell-type specific factors can influence the activity of the transactivating domains of steroid receptors. In order to evaluate this possibility, wild type and mutant receptors were transfected into CV-1 cells.

SMILES | transcriptional activity (in words) [1] | transcriptional activity (in words) [2] | further results
CCC(=O)[C@@]1(C)CC[C@H]2[C@@H]3CCC4=CC(=O)CCC4=C3CC[C@@]21C [R5020] | had no effect |  | 
C[C@]12CCC(=O)C=C1CC[C@@H]1[C@@H]2[C@@H](O)C[C@@]2(C)[C@H]1CC[C@]2(O)C(=O)CO [cortisol] | inactive | inactive | 
C[C@@H]1C[C@H]2[C@@H]3CCC4=CC(=O)C=C[C@]4(C)[C@@]3(F)[C@@H](O)C[C@]2(C)[C@@]1(O)C(=O)CO [dexamethasone] | inactive | inactive | 
C[C@]12CC[C@@H]3c4ccc(O)cc4CC[C@H]3[C@@H]1CC[C@@H]2O [estradiol] | inactive | inactive | 
COc1ccc2c(c1)CCC(c1ccccc1)=C2c1ccc(OCCN2CCCC2)cc1 [nafoxidine] | inactive | inactive | 
C[C@H]1CC2=CC(=O)CCC2=C2[C@@H]1[C@@H]1CC[C@@]3(CCCO3)[C@@]1(C)C[C@@H]2c1ccc(N(C)C)cc1 [Org31806, (7β,11β,17β)-11-(4-dimethylaminophenyl)-7-methyl-4′,5′-dihydrospiro[ester-4,9-diene-17,2′(3′H)-furan]-3-one] |  |  | activation of mutant receptor [1]: activated
CN(C)c1ccc(C2CC3(C)C(CCC34CCCO4)C3CCC4=CC(=O)CCC4=C23)cc1 (stereo not drawn) [Org31376, (11β,14β,17α)-4′,5′-dihydro-11-(4-dimethylaminophenyl)-[spiroestra-4,9-diene-17,2′(3′H)-furan]-3-one] |  |  | activation of mutant receptor [1]: activated
CC(=O)[C@H]1CC[C@H]2[C@@H]3CCC4=CC(=O)CC[C@]4(C)[C@H]3CC[C@]12C [progesterone] |  |  | induction of transcription [2]: greater than 60 fold; activation of transcription [3]: inactive; activation of transcription [4]: inactive; induction of CAT activity (891 mutant (phPR-B891)): no activity; induction of transcription of CAT gene reporter (wild type PR (phPR-B)): 3- to 4 fold; receptor activation (CAT) [5]: activated
